The source of these data is article PMC5391603, “Identification and functional characterisation of a Schistosoma japonicum insulin-like peptide” (Parasites & Vectors, 2017).

As usually defined, the Kd is the free concentration of one partner at which half of the binding sites on the other are occupied at equilibrium, for simple one-to-one binding.

Entries after “also recorded” stand apart in the source; their conditions may differ.

Assay [1] addresses recombinant Schistosoma japonicum insulin-like peptide, C-terminal fragment T31-S130 (S. japonicum). The experiment in a line: BLI; Octet RED, 25 °C; biotinylated rSjILP (150 ng/μl) immobilised on streptavidin biosensors, exposed to rSjLD1 or rSjLD2 (7, 14, 28, 56, 112 ng/μl); kinetic buffer (1 mM phosphate, 15 mM NaCl, 0.1 mg/ml BSA, 0.002% Tween-20); association 1000 s, dissociation 1000 s; BSA as reference. In general terms: Biolayer interferometry detects binding as a change in optical thickness at a sensor tip.

Assay [2] can be described thus: ADP assay (ADP hydrolysis/consumption by proteins). The format is biochemical. The conditions noted are these: ADP assay kit, protein 0.13 mg/ml, 20 min incubation, ADP 0, 5, 15, 30 μM. The protocol: To measure the level of hydrolysis of ADP by the schistosome ILP, ADP assay kits (Sigma-Aldrich) were used to measure ADP levels of recombinant schistosome ILPs after their interaction with different concentrations of ADP. ADP levels in various proteins (0.13 mg/ml) were determined following their incubation for 20 min with different concentrations of ADP (0, 5, 15, 30 μM).

Assay [3] deals with Erk (p44/42 MAPK) in adult S. japonicum. Briefly: Erk phosphorylation in adult worms, Western blot with anti-phospho-P44/42 MAPK (Erk1/2) antibody. The class given is cell-based. The source says: It had been shown previously that an anti-phospho-P44/42 MAPK (Erk1/2) antibody could recognize exclusively activated (phosphorylated) forms of this kinase in S. mansoni because of the high sequence homology in key phosphorylation sites between kinases from schistosomes and humans, and because phosphorylation at these sites is vital for enzyme activation. […] Worms from the different groups were then collected for SWAP extraction which was undertaken in the presence of HALT protease/phosphatase inhibitor cocktail (ThermoFisher, Waltham, USA). SDS-PAGE/Western blotting was carried out as described above using the Odyssey system. […] An anti-actin antibody (Sigma-Aldrich) (1:150) was used to assess protein-loading differences. OdysseyClassic 3.0 software was used for Western blot quantification.

Assay [4] deals with S. japonicum IRs (SjIR1 and SjIR2). The arrangement: method as in PMID 25961574. The conditions noted are these: ref [18]; cited from earlier work.
The next assay concerns adult S. japonicum. The conditions noted are these: in vitro, ref [15], cited from earlier work. The source says: The life-cycle of schistosomes involves snail intermediate hosts and definitive mammalian hosts including humans, in whom schistosomes can survive for decades. Remarkably, the highly sophisticated relationship between schistosomes and their mammalian hosts seems to involve exploitation by these parasites of host endocrine and immune signals. By binding many ligands including hormones, growth factors, cytokines, receptor tyrosine kinases (RTKs), which are high-affinity cell surface receptors, can be activated to trigger different signalling cellular cascades for the regulation ...

Assay [5] deals with T1, recombinant ligand domain of S. japonicum insulin receptor 1 (S. japonicum, biotin (NHS-PEO4-biotin kit) where it was immobilised on streptavidin biosensors).
T1 chain: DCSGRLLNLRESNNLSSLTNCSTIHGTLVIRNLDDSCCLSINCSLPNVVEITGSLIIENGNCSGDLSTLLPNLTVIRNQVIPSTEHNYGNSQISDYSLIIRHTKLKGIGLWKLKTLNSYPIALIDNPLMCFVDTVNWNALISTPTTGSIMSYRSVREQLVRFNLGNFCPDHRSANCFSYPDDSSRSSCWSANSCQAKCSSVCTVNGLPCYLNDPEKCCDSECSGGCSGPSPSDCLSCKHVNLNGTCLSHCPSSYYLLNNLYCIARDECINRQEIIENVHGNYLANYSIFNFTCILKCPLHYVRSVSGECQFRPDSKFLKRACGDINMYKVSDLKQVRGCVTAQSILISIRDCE
The experiment in a line: BLI.

“recombinant ligand domain of S. japonicum insulin receptor 2 (domain or fragment)”: the Kd in assay [1] came out at 0.16 nM.

As for “recombinant ligand domain of S. japonicum insulin receptor 1 (domain or fragment)”, the Kd in assay [1] came to 0.226 nM.

On to “human insulin: human insulin (Sigma-Aldrich)”, for which, in assay [2], the “ADP hydrolysis, result in words” value is given as “no ADP binding ability was observed”. In addition, the “reduction of Erk band intensity compared with worms co-stimulated with rSjILP and insulin” value in assay [3] (human insulin only (1 μM), 30 min, t (6) = 31.39, P = 0.001, experiment performed twice) is reported as 58%. In addition, the “Erk phosphorylation (44 kDa band), result in words” value in assay [3] (rSjILP 1 μM and/or human insulin 1 μM, 30 min in DMEM, anti-phospho-P44/42 MAPK antibody (1:1,000), experiment performed twice) was “The Erk band was also detectable; also recorded: more phosphorylated Erk was observed in worms stimulated with human insulin compared with worms cultured without insulin”. Besides, the “reduction of Erk band intensity in worms without human insulin and rSjILP, compared with insulin only” value in assay [3] (value is the intensity of untreated worms relative to human insulin only (1 μM), 30 min, t (6) = 4.353, P = 0.049) came out at 30%. In addition, in assay [4], the “binding of human insulin to SjIR1 and SjIR2, in words” value was “bind strongly with both SjIR1 and SjIR2”. In addition, the “increase of glucose content of adult female S. japonicum” value in the assay on adult S. japonicum (female worms) is 2.9 fold. Further, the “increase of glucose content of adult male S. japonicum” value with adult S. japonicum (male worms) was 1.7 fold.

B1: recombinant Schistosoma japonicum insulin-like peptide, C-terminal fragment T31-S130 (domain or fragment)
chain: THSLPELQTDYTPINDYPIRMCGNEFLRHLKRVCAIRGIYTPLVRFKRSLEQYYDRILQRGKRFDDLCTLYTIYEPDQVVTKCCCIGCTRSYLEQFCNPS
modifications: biotin (NHS-PEO4-biotin kit) where it was immobilised on streptavidin biosensors
Turning to B1, the Kd in assay [5] amounted to 0.255 nM.
